# According to patent US20200338064A1, “HIGH CONCENTRATION LOCAL ANESTHETIC FORMULATIONS” (priority 2007, published 2020):
# Assay: Solubility and compatibility of lidocaine and lidocaine HCl at 40% w/w in solvent blends
# Assay type: physicochemical
# Conditions: two weeks at accelerated conditions versus initial
# Protocol: The solubility and compatibility of lidocaine and lidocaine HCl in solvents typically used in topical pharmaceutical products was assessed in order to direct the formulation development efforts.
# Initially, the solubility of lidocaine and lidocaine hydrochloride was evaluated in single solvents with varying lipophilicity. […] Based on the single solvent data, a compatibility study was initiated to evaluate the chemical stability of the drug at a concentration of 40% w/w in a variety of solvent blends that would form the base of potential prototype gel or cream formulations.
compound,measurement,value
CCN(CC)CC(=O)Nc1c(C)cccc1C [lidocaine],Physical appearance and chemical compatibility in solvent blends,retained their physical appearance
